{"source": "patent US10364360B2", "about": "“Surface coating material, coating film, and hydrophilic oil repellent member” (MITSUBISHI MATERIALS CORPORATION, priority 2014, dated 2019)", "experiment": "Solubility of the compound in water", "format": "physicochemical", "settings": "room temperature (25° C.)", "protocol": "23.5 g of perfluoro(3-dibutylaminopropionic acid) was neutralized with 1.5 g of calcium hydroxide in a methanol/water mixed solution. The precipitated crystals were separated by filtration, and dried at 100° C., whereby 23.5 g of perfluoro(3-dibutylaminopropionic acid) calcium represented by the following Formula (378) was obtained (yield of 97%). The solubility of the present compound in water at room temperature (25° C.) was 2 [g/100 g-H2O]."}
{"compound": "O=C(O)C(F)(F)C(F)(F)N(C(F)(F)C(F)(F)C(F)(F)C(F)(F)F)C(F)(F)C(F)(F)C(F)(F)C(F)(F)F.[Ca]", "note": "[Synthesis Example 3, perfluoro(3-dibutylaminopropionic acid) calcium]", "values": [{"measurement": "solubility of the present compound in water", "value": 2, "unit": "g/100 g-H2O"}]}
